Experiments:
[1] = system: cancer cell lines; assay: area under the drug response curve (AUC) of cancer cell lines exposed to osimertinib; format: cell-based; details: AUC of 1 = growth equal to growth without osimertinib
Description: FIG. 4D depicts a boxplot of area under the drug response curve values for cell lines partitioned into a first group (sensitive) and the second group (non-sensitive) of cancer cell lines, by a machine learning model disclosed herein.
FIG. 4D depicts a graph of a box and whisker plot of area under the drug response curve (AUC) values for the first group (sensitive) and the second group (non-sensitive) of cancer cell lines. […] Furthermore, instead of generating the machine learning model wherein the model learns a point estimate for each of the parameters of the partitioning matrix (e.g., two or more genes), the machine learning model may be generated in a Bayesian context, wherein the machine learning model learns the posterior parameter distribution for the parameters of the partitioning matrix, the posterior parameter distribution may be approximately gaussian. For example, when the parameters of the partitioning matrix include 7 distinct genes, the machine learning model may learn the posterior parameter distribution for 8 different parameters (e.g., 7 genes plus an intercept term). In some embodiments, the posterior parameter distribution may have a confidence region of about 90%. The graphical representation of the confidence region of the posterior parameter distribution may depict ellipse enclosing a high-density region.

[2] = system: NSCLC; assay: overall survival of osimertinib-treated NSCLC patients (AACR Project GENIE cohort), predicted sensitive vs. less sensitive; format: in vivo, human; details: 334 osimertinib-treated patients
Description: FIG. 8 depicts a Kaplan-Meier plot showing corresponding overall survival (OS) measurements of patients predicted, according to methods of the present disclosure, to be sensitive vs. insensitive to ismertinib. NSCLC patients predicted to be sensitive experienced a 35-month increased median OS than the predicted less sensitive group (log-rank test p-value<10-5; HR=1.57 (1.43-1.78, 95% CI)).
A clinicogenomics cohort from AACR Project GENIE, which included 334 patients treated with osimertinib, was used to validate the predictive ability of the methods disclosed herein. Data obtained in real-world settings were used to assign drug sensitivity predictions to individual patients in a RWD cohort of NSCLC patients treated with osimertinib. FIG. 8, a Kaplan-Meier plot, depicts overall survival (OS) measurements corresponding to patients predicted to be sensitive vs. insensitive. NSCLC patients predicted to be sensitive experienced a 35-month increased median OS than the NSCLC patients predicted to be less sensitive (log-rank test p-value<10-5; HR=1.57 (1.43-1.78, 95% CI)).

[3] = system: NSCLC tumor PDX models; assay: tumor response (mRECIST) of treatment-naïve NSCLC patient-derived xenograft (PDX) models in mice; format: in vivo; details: 25 mg/kg/day for 3 weeks, NOD/SCID or BALB/c nude mice
Description: FIG. 9 depicts a method for further validation of sensitivity predictions using patient-dervied xenograft (PDX) models (HuBase™, CrownBio®). Treatment naïve PDX tumors were subcutaneously implanted into female non-obese diabetic/severe combined immunodeficient (NOD/SCID) or BALB/c nude mice in triplicate for a total of 96 mice (n=48 treated; 48 vehicle-treated controls). Mice were assigned labels. After implanted tumors reached a size of 200 mm^3, mice were randomized into treatment and control groups. Treated mice were dosed with 25 mg/kg/day of osimertinib for 3 weeks. Changes in tumor volume were calculated. For each PDX model, tumor growth for treatment groups and control groups was assessed.
To validate the predictions of tumor sensitivity/insensitivity, as described above, data were acquired using treatment-naïve NSCLC tumor (patient-derived xenograft) PDX models available via HuBase™ (CrownBio®, an online database offering complete genomic annotation of the PDX models).
The current FDA label for osimertinib (FIG. 7) was used to assign PDX tumors to “FDA ON” or “FDA OFF” label groups based on the presence or absence of DNA alterations indicated for this drug (i.e., L858R mutation, T790M mutation, or exon 19 deletion). PDX tumors were also assigned label groups based on sensitivity predictions, as described above. Tumors labeled “Zephyr ON” included those that were predicted to be osimertinib-sensitive and samples labeled “Zephyr OFF” include those predicted to be osimertinib-insensitive. PDX models were then divided into four cohorts: FDA ON/ZEPHYR ON; FDA OFF/ZEPHYR ON; FDA ON/ZEPHYR OFF; and FDA OFF/ZEPHYR OFF.
Treatment naïve PDX tumors were subcutaneously implanted into female NOD/SCID or BALB/c nude mice in triplicate for a total of 96 mice (n=48 treated; 48 vehicle-treated controls). After implanted tumors reached a size of 200 mm^3, mice were randomized into treatment and control groups. Treated mice were dosed with 25 mg/kg/day of osimertinib for 3 weeks. Changes in tumor volume were calculated as previously described, e.g., in Gao et al., Nat. Med. 21, 1318-1325 (2015). For each PDX model, tumor growth for treatment groups and control groups (vehicle only) was assessed.
This final cohort represents an expansion of the patient population that can be successfully treated with osimertinib that is not captured by the existing FDA label.

C=CC(=O)Nc1cc(Nc2nccc(-c3cn(C)c4ccccc34)n2)c(OC)cc1N(C)CCN(C)C [osimertinib]
average AUC (area under the drug response curve) ([1]; first group (predicted sensitive) of cancer cell lines): about 0.9 | average AUC (area under the drug response curve) ([1]; second group (predicted non-sensitive) of cancer cell lines): about 0.95 | increase in median overall survival (OS), predicted sensitive vs. predicted less sensitive ([2]; real-world data, log-rank test p-value<10-5): 35 month | hazard ratio (HR) for overall survival ([2]; 95% CI in brackets): 1.57 (1.43-1.78, 95% CI) | tumor response by mRECIST ([3]; FDA OFF/ZEPHYR OFF cohort): disease progression | tumor response by mRECIST ([3]; FDA OFF/ZEPHYR ON cohort (no on-label EGFR alteration, predicted sensitive)): partial to complete response | tumor response by mRECIST ([3]; FDA ON/ZEPHYR OFF cohort): a mix of complete responses and disease progression | tumor response by mRECIST ([3]; FDA ON/ZEPHYR ON cohort): complete response

Reference: patent US20260142006A1, “APPARATUS AND METHODS FOR DETERMINING SENSITIVITY TO OSIMERTINIB” (Zephyr AI, Inc., priority 2022, published 2026)
